Measurements published in patent publication US20210330611A1, “THERAPY FOR NEUROLOGICAL DISEASES/DISORDERS” (priority 2020, published 2021).
Counter-ions that a name gives are not always drawn. Like-named read-outs stand apart in the source and are kept apart here.

What was measured:
primary rat microglia [1] = experiment: Cell toxicity (dead cells, size <150 μm2) in coated fibrin (cFib) assay; conditions: primary microglia HTS, 10 μM, fibrin assay, cell size <150 μm^2 as marker of toxicity;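 note: share of dead cells sized under 150 µm2 at 10 µM in fibrin-stimulated microglia HTS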
primary rat microglia [2] = experiment: Cell toxicity (dead cells, size <150 μm2) in LPS assay; conditions: primary microglia HTS, 10 μM, LPS assay, cell size <150 μm^2 as marker of toxicity
[3] = system: fibrin- and LPS-induced microglia activation; experiment: cells; assay type: cell-based, rat; conditions: HTS of 1907 compounds, quadrant by fibrin and LPS inhibition
[4] = system: LPS-induced microglia activation; experiment: Image-based assay of LPS-induced microglia activation (HTS and dose response); assay type: cell-based, rat; conditions: for inhibition at 10 µM: Rattus norvegicus, Microglia, read-out: LPS % inhibition
[5] = system: fibrin-induced microglia activation; experiment: Image-based assay of fibrin-induced microglia activation (HTS and dose response); assay type: cell-based, rat; conditions: for inhibition at 10 µM: Rattus norvegicus, Microglia, read-out: Fibrin % inhibition
[6] = primary microglia HTS, 10 μM, LPS-stimulated, cell size >800 μm^2 as marker of activation
[7] = primary microglia HTS, 10 μM, fibrin-stimulated, cell size >800 μm^2 as marker of activation

| SMILES | Fibrin % cell toxicity (primary rat microglia [1]) | LPS % cell toxicity (primary rat microglia [2]) | Quadrant (FIG. 5b) [3] | LPS % inhibition [4, 6] | Fibrin % inhibition [5, 7] | inhibition at 10 µM [4, 6] | inhibition at 10 µM [5, 7] | inhibition at 10 µM [4] | inhibition at 10 µM [5] |
| --- | --- | --- | --- | --- | --- | --- | --- | --- | --- |
| CC(C)C[C@H](NC(=O)[C@@H](Cc1c[nH]c2ccccc12)NC(=O)[C@H](Cc1ccc(O)cc1)NC(=O)[C@H](CO)NC(=O)[C@H](Cc1c[nH]c2ccccc12)NC(=O)[C@H](Cc1c[nH]cn1)NC(=O)[C@@H]1CCC(=O)N1)C(=O)N[C@@H](CCCNC(=N)N)C(=O)N1CCC[C@H]1C(=O)NCC(N)=O [Triptorelin] | 1% | 0% | Q4 | 4% | −15% | – | – | – | – |
| Cc1c(C)c2c(c(C)c1O)CCC(C)(COc1ccc(CC3SC(=O)NC3=O)cc1)O2 (stereo not shown) [Troglitazone] | 1% | 0% | Q4 | – | – | 4% | -22% | – | – |
| CN1[C@@H]2CC[C@H]1C[C@@H](OC(=O)c1c[nH]c3ccccc13)C2 [Tropisetron] | 0% | 0% | Q4 | – | – | 14% | -28% | – | – |
| O=C(O[C@H]1C[C@H]2CC[C@@H](C1)[N+]21CCCC1)C(O)(c1ccccc1)c1ccccc1 [Trospium Chloride] | 0% | 1% | Q4 | – | – | 9% | -39% | – | – |
| C[C@@H]1O[C@@H](OC[C@H]2O[C@@H](Oc3c(-c4ccc(OCCO)c(OCCO)c4)oc4cc(OCCO)cc(O)c4c3=O)[C@H](O)[C@@H](O)[C@@H]2O)[C@H](O)[C@H](O)[C@H]1O [Troxerutin] | 0% | 0% | Q4 | – | – | 8% | -10% | – | – |
| CCCCCC(C)N (stereo not shown) [Tuaminoheptane Sulfate] | 1% | 0% | Q4 | – | – | 19% | -7% | – | – |
| COc1cc2c3cc1Oc1cc(ccc1O)C[C@@H]1c4c(cc(OC)c(O)c4Oc4ccc(cc4)C[C@@H]3N(C)CC2)CC[N+]1(C)C [Tubocurarine] | 0% | 0% | Q4 | – | – | 19% | -1% | – | – |
| CC(C)(C)NCC(O)c1ccccc1Cl.Cl (stereo not shown) [Tulobuterol, Tulobuterol Hydrochloride] | 0% | 0% | Q4 | 36% | 21% | – | – | – | – |
| O=c1cc[nH]c(=O)[nH]1 [Uracil] | 0% | 0% | Q4 | – | – | 11% | 3% | – | – |
| COc1ccccc1N1CCN(CCCNc2cc(=O)n(C)c(=O)n2C)CC1 [Urapidil Hydrochloride] | 1% | 0% | Q4 | – | – | 20% | -6% | – | – |
| NC(N)=O [Urea] | 1% | 0% | Q4 | 20% | −14% | – | – | – | – |
| C[C@H](CCC(=O)O)[C@H]1CC[C@H]2[C@@H]3[C@@H](O)C[C@@H]4C[C@H](O)CC[C@]4(C)[C@H]3CC[C@]12C [Ursodeoxycholic Acid] | 1% | 0% | Q4 | 1% | −18% | – | – | – | – |
| C[C@H](CCC(=O)O)[C@H]1CC[C@H]2[C@@H]3[C@@H](O)C[C@@H]4C[C@H](O)CC[C@]4(C)[C@H]3CC[C@]12C [Ursodiol] | 0% | 0% | Q4 | 18% | −21% | – | – | – | – |
| CC(C)[C@H](N)C(=O)OCCOCn1cnc2c(=O)[nH]c(N)nc21 [Valaciclovir] | 1% | 0% | Q4 | – | – | 15% | 12% | – | – |
| Cc1onc(-c2ccccc2)c1-c1ccc(S(N)(=O)=O)cc1 [Valdecoxib] | 1% | 0% | Q4 | – | – | -4% | -39% | – | – |
| CC(C)[C@H](N)C(=O)OCC(CO)OCn1cnc2c(=O)nc(N)[nH]c21 (stereo partly shown) [Valganciclovir] | 0% | 1% | Q4 | – | – | 14% | -12% | – | – |
| CCCCC(=O)N(Cc1ccc(-c2ccccc2-c2nnn[nH]2)cc1)[C@H](C(=O)O)C(C)C [Valsartan] | 0% | 0% | Q4 | – | – | – | – | 12% | -17% |
| CC(=O)O[C@H]1C[C@@H]2CC[C@@H]3[C@H](CC[C@@]4(C)[C@H]3C[C@H]([N+]3(C)CCCCC3)[C@@H]4OC(C)=O)[C@@]2(C)C[C@@H]1N1CCCCC1 [Vecuronium Bromide] | 1% | 0% | Q4 | 23% | 7% | – | – | – | – |
| CC(=O)O[C@H]1C[C@@H]2CC[C@@H]3[C@H](CC[C@@]4(C)[C@H]3C[C@H]([N+]3(C)CCCCC3)[C@@H]4OC(C)=O)[C@@]2(C)C[C@@H]1N1CCCCC1 [Vecuronium] | 1% | 1% | Q4 | 0% | −24% | – | – | – | – |
| COc1ccc(C(CN(C)C)C2(O)CCCCC2)cc1 (stereo not shown) [Venlafaxine, Venlafaxine Hydrochloride] | 1% | 0% | Q4 | 20% | 3% | – | – | – | – |
| Nc1ncnc2c1ncn2[C@@H]1O[C@H](CO)[C@@H](O)[C@@H]1O [Vidarabine] | 1% | 0% | Q4 | – | – | 14% | -3% | – | – |
| N#Cc1ccc2[nH]cc(CCCCN3CCN(c4ccc5oc(C(N)=O)cc5c4)CC3)c2c1 [Vilazodone] | 1% | 1% | Q4 | – | – | 27% | 1% | – | – |
| CC[C@]12CCCN3CCc4c(n(c5ccccc45)[C@@](O)(C(=O)OC)C1)[C@@H]32 [Vincamine] | 0% | 0% | Q4 | – | – | 20% | 1% | – | – |
| Cc1cc(C(C)(C)C)cc(C)c1CC1=NCCN1 [Xylometazoline] | 0% | 1% | Q4 | – | – | 19% | -5% | – | – |
| COC(=O)[C@@H]1[C@H]2C[C@H]3c4[nH]c5ccccc5c4CCN3C[C@@H]2CC[C@@H]1O [Yohimbine Hydrochloride] | 1% | 1% | Q4 | 19% | −8% | – | – | – | – |
| COC(=O)[C@@H]1[C@H]2C[C@H]3c4[nH]c5ccccc5c4CCN3C[C@@H]2CC[C@@H]1O [Yohimbine] | 1% | 0% | Q4 | −17% | 4% | – | – | – | – |
